Measured values published in patent US8969304B2, “Compositions and methods for the prevention of cancer in high risk patients” (The Institute for Cancer Research, priority 2010, dated 2015).
Residues, ends and D or L forms follow the SMILES beside them. No end group written: not given here.

Assays:
MCF-10F cells [1] = details: cells treated with E2; cited from earlier work
LHCGR = experiment: real time RT-PCR, LHCGR gene expression; assay type: cell-based, human
MCF-10F cells [2] = assay type: cell-based, human
CXCR1 = experiment: real time RT-PCR, CXCR1 gene expression; assay type: cell-based, human
[3] = target: T1, LH/hCG binding to rat ovarian membranes (Rattus norvegicus, UniProt P16235); details: among two series of overlapping peptides of hCG (ref. 15); cited from earlier work
T1 construct: from tissue; host or cells: rat ovarian membranes
T1 sequence (P16235 27-700): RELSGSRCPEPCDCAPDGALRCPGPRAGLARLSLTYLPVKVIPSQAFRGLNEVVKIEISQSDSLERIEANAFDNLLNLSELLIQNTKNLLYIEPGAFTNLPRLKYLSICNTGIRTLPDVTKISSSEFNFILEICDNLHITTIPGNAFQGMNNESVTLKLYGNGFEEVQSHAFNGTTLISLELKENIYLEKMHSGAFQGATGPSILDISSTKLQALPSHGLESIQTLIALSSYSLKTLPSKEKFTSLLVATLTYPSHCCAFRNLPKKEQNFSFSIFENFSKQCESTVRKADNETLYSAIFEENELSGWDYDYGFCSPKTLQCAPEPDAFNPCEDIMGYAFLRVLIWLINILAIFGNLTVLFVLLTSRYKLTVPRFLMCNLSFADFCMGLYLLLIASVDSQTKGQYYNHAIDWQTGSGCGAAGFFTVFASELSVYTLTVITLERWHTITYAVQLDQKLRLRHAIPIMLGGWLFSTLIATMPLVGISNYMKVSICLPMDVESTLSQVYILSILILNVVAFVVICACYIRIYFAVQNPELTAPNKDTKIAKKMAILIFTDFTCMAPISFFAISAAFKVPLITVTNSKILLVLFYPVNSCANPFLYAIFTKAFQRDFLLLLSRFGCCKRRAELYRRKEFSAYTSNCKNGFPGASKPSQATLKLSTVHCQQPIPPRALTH

FAK/AKT/FOXO3A pathway = experiment: FAK, AKT and FOXO3A expression (unpublished data); assay type: cell-based; details: previous results
GPR30 = experiment: real time RT-PCR, GPR30 gene expression; assay type: cell-based, human; details: treated MCF-10F cells, data not shown
LH/hCG-R in MA-10 cells = target: T2, LH/hCG-R in MA-10 cells (Mus musculus, UniProt P30730); experiment: intracellular cAMP production (enzyme immunoassay); assay type: cell-based; details: 2.5 μg r-hCG/ml or 20 μM PPFC-879-81-95
T2 construct: endogenous in cells; host or cells: MA-10 mouse Leydig tumor cells
T2 sequence (P30730 27-700): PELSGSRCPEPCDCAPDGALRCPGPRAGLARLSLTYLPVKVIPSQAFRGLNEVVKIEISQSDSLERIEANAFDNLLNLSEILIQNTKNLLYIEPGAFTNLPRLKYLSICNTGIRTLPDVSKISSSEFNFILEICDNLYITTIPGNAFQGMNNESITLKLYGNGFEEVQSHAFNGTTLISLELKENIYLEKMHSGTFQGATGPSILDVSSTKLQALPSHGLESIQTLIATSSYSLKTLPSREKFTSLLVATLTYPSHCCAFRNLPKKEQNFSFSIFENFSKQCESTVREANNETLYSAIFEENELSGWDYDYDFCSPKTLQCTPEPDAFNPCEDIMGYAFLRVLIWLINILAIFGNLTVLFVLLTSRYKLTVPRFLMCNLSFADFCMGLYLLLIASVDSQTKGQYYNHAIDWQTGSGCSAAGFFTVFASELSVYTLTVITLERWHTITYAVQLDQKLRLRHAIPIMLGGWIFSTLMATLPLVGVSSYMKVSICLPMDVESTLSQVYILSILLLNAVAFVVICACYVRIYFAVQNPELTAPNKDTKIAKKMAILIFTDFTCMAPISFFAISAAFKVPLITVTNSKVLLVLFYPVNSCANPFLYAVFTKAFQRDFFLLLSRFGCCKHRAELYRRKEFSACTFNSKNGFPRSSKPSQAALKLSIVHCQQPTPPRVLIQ

[4] = tested on: E2-transformed MCF-10F cells; experiment: solid mass formation and branching of E2-transformed MCF-10F cells in collagen; assay type: cell-based, human; details: compared with r-hCG
[5] = tested on: human breast epithelial cells; experiment: genomic analysis of r-hCG and peptide-treated cells; assay type: cell-based
Text: The down-regulation of BMI1 supports the concept that the preventive effect of hCG results from the shifting of the stem cell 1 to stem cell 2 (Russo, J., et al., (2006) Front Biosci., 11:151-172). This is only one example of identification of the molecular determinants of hormone specificity which provide the means to target the CG/LH-R for activation thereby conferring the protective effects against breast cancer.

MCF-10F cells [6] = experiment: ductulogenesis and branching of MCF-10F cells in 3D collagen matrix; assay type: cell-based, human; details: MCF-10F cells in collagen matrix, added to the culture medium
Text: (§1) The cells grow along hollow branches forming ductules lined by a monolayer of epithelial cells. […] For these studies, we designed oligopeptides of the hCG beta subunit and had them synthesized by AAPPTec, LLC, Louisville, Ky. We selected a 15 aa peptide with a sequence “N”-[…]-“C” (SEQ ID NO: 2) that encompasses aa 81-95 and was designated PPFC-879-81-95.

MDA-MB-435 = experiment: invasiveness (cells traversing a matrigel membrane); assay type: cell-based, human
Text: (§2) FIG. 2: (A) Effect of 17b-estradiol (E2), r-hCG and PPFC-879-81-95 peptide on formation of primary, secondary, and tertiary ducts by MCF10F cells grown in a collagen matrix. DMSO served as control. Ordinate, percentage of structures. (B) Effect of r-hCG and hCG peptide on colony formation. Only DMSO-treated (control) E2-cells formed solid masses. (C) Effect of r-hCG and hCG peptide on the invasive index of MCF10F, E2-transformed, E2T4, MCF-7 and MDA-MB-435 cells. Ordinate, number of cells traversing a matrigel membrane.
as §1

[7] = tested on: E2-transformed MCF-10F cells; experiment: as above; assay type: cell-based, human
Text: as §2, §1

MCF-10F cells [8] = experiment: as above; assay type: cell-based, human
Text: as §2, §1

tumor derived E2T4 cells = experiment: as above; assay type: cell-based, human
Text: as §2, §1

MCF-7 = experiment: as above; assay type: cell-based, human
Text: as §2, §1

LH/hCG-R in MCF10F cells = target: T3, LH/hCG-R in MCF10F cells (Homo sapiens, UniProt P22888); experiment: intracellular cAMP production (enzyme immunoassay); assay type: cell-based; details: 2.5 μg r-hCG/ml or 20 μM PPFC-879-81-95
T3 construct: For verifying the presence and functionality of the receptor in normal and transformed MCF10F cells; endogenous in cells; host or cells: MCF10F human breast epithelial cells
T3 sequence (P22888 27-699): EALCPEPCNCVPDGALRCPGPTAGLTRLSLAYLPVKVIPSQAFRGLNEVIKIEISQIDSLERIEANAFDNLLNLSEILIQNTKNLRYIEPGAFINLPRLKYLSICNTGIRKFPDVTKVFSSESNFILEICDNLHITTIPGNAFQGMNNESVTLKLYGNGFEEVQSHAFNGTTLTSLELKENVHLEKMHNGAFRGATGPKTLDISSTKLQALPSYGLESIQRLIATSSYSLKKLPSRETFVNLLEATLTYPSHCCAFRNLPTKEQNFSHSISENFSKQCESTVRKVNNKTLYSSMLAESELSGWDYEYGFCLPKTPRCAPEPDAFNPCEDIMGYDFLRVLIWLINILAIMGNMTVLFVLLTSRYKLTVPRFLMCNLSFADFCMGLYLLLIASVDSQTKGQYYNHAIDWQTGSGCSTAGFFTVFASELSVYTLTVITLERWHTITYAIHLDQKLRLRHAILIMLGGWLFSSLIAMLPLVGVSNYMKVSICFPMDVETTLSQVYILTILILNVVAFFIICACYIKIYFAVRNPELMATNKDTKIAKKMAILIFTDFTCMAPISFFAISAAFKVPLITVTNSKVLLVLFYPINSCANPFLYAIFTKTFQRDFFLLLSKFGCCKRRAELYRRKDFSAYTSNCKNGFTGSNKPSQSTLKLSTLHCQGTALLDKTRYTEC

In the case of `C[C@]12CC[C@@H]3c4ccc(O)cc4CC[C@H]3[C@@H]1CC[C@@H]2O` [E2, 17-β-estradiol], the “structures formed by MCF-10F cells in collagen after treatment” value (MCF-10F cells [1]) is listed as “forming instead spherical structures with a multilayered epithelium that exhibits marked atypia”.
For `CC(C)C[C@H](NC(=O)[C@H](C)NC(=O)[C@@H](NC(=O)[C@@H]1CCCN1C(=O)[C@H](Cc1ccccc1)NC(=O)[C@@H](N)CO)C(C)C)C(=O)N[C@@H](CO)C(=O)N[C@@H](CS)C(=O)N[C@@H](CCCNC(=N)N)C(=O)N[C@@H](CS)C(=O)NCC(=O)N1CCC[C@H]1C(=O)N[C@@H](CS)C(=O)N[C@@H](CCCNC(=N)N)C(=O)N[C@@H](CCCNC(=N)N)C(N)=O` [peptide, SFP VAL SCR CGP CRR-NH2] (H-SFPVALSCRCGPCRR-NH2; N-terminus assumed), the “hCG receptor (LHCGR) gene expression” value (LHCGR; MCF-10F, from the first day of treatment on) was “up-regulated”, the “LHCGR gene expression, peptide versus hCG” value (LHCGR; last day of treatment (15th), p=0.06) was “tendency of the peptide to induce a higher levels gene expression than hCG” and the “cell proliferation inhibition, peptide versus hCG” value (MCF-10F cells [2]; days 10 and 12, p<0.02) was “more potent cell proliferation inhibitor than hCG”. The “decrease in the number of viable cells” value (MCF-10F cells [2]; human, 20 μM) was 36-72%, the CXCR1 expression (CXCR1; MCF-10F, all along the treatment) was “down-regulated” and the “CXCR1 down-regulation, peptide versus hCG” value (CXCR1; last day of treatment (15), p<0.01) was “down-regulation of the receptor was more apparent in the peptide-treated cells than in hCG treated cells”. For the same compound, the “inhibition of 125I-labeled hCG binding” value [3] was “most potent inhibitor of LH/hCG binding”, the “FAK and AKT” value (FAK/AKT/FOXO3A pathway) was “decrease” and the FOXO3A expression (FAK/AKT/FOXO3A pathway) was “up-regulate”. The “GPR30 mRNA expression” value (GPR30) was “undetectable or very low values”.
For “Ser-Tyr-Ala-Val-Ala-Leu-Ser-Cys-Gln-Cys-Ala-Leu-Cys-Arg-Arg (NH2) (SYAVALSCQCALCRR-NH2; cysteine pairing not given here) [PPFC-879-81-95, 15 aa peptide of the hCG beta subunit, aa 81-95]”, the “intracellular cAMP production” value (LH/hCG-R in MA-10 cells) was “time-dependent increase”, the “formation of solid masses in collagen” value [4] was “abrogated more efficiently than r-hCG” and the “gene clusters activated or downregulated” value [5] was “induced activation or downregulation of the same clusters of genes that were modified by either parity or r-hCG treatment”. For the same compound, the “number of secondary and tertiary ducts (branching pattern)” value (MCF-10F cells [6]) was “increasing the number of secondary and tertiary ducts”, the invasiveness (MDA-MB-435) was “inhibited invasiveness” and the invasiveness [7] was “inhibited invasiveness”. For the same compound, the invasiveness (MCF-10F cells [8]) was “inhibited invasiveness”, the invasiveness (tumor derived E2T4 cells) was “inhibited invasiveness” and the invasiveness (MCF-7) was “inhibited invasiveness”. The “intracellular cAMP production” value (LH/hCG-R in MCF10F cells) was “time-dependent increase”.
